“And” between values parts separate entries of the source, which are not always exact repeats. Equal entries are not always repeated. Where two headings read alike, the source gives them in different places.
How the values were obtained:
[1] = tested on: α-syn overexpressing LUHMES cells; experiment: LDH release into the culture medium as measure of α-syn-induced cell death; format: cell-based, human; conditions: for effect of specific PDE inhibitors on α-syn mediated toxicity (LDH release): FIG. 2B-I
microglial marker ibal = conditions: mouse, in vivo
caspase 3 and 7 = experiment: CellEvent fluorescence signal for activated caspase 3 and 7; format: cell-based, human; conditions: 20 μM vinpocetine; untransduced 1.0±0.2, α-syn with DMSO 74.8±5.7
Source text: (§1) FIG. 3 The PDE1 inhibitor vinpocetine reduces cell death and 37 kDa α-syn specimen. (A) Cell counts of untransduced control cells (Ctrl, white bar), solvent treated α-syn transduced cells (black bar) and α-syn transduced cells with treated with different concentrations of vinpocetine (dark grey bars) confirmed the protective effect of vinpocetine. […] (C) Quantification of the CellEvent™ signal in untransduced control cells (Ctrl, left bar), α-syn transduced cells treated with solvent (black bar) and vinpocetine treated α-syn transduced cells (dark grey bar). (D) Representative Western blot of control cells (Ctrl), α-syn transduced cells without or with treatment vinpocetine in different concentrations. (E-H) Quantification of specific α-syn positive Western blot bands. […] The density of the 37 kDa band positively correlated with the LDH release (r^2=0.99, P<0.001, I) and negatively correlated with the number of vital cells (r^2=0.96, P<0.01, J). *P<0.05, **P<0.01, ***<0.001, n.s. not significant, one-way ANOVA with Tukey's HSD post-hoc test. Data are mean±s.e.m.
(§2) To validate the data from the LDH measurement, we determined the number of vital 4′,6-diamidino-2-phenylindole (DAPI)-stained nuclei in untransduced control cells and α-syn overexpressing cells treated without or with ascending concentrations of vinpocetine. […]

[2] = tested on: α-syn overexpressing LUHMES cells; experiment: Number of vital DAPI-stained nuclei (cell counts); format: cell-based, human; conditions: 20 μM vinpocetine; α-syn with DMSO 57.0±3.4%
Source text: as §1, §2

[3] = tested on: TH+ neurons in the substantia nigra; experiment: Stereological counting of TH+ cells in the substantia nigra after intranigral rAAV injection; format: in vivo, mice
Experimental: FIG. 5 Vinpocetine protects against α-syn-induced toxicity in vivo. (A) Experimental time flow. Grey bar: time point of stereotactical injection. (B) Experimental groups. Mice were injected stereotactically with either NaCl (control injection) or rAAV to overexpress luciferase (rAAV-Luc, control protein), or alpha-synuclein (rAAV-α-syn). Animals of each injection group were then randomized with a 1:1 allocation to be treated with once daily intraperitoneal injections of either solvent or vinpocetine for a 9-week period. (C) Representative images of the substantia nigra, immunostained for tyrosine hydroxylase (TH, grey) to identify dopaminergic neurons in solvent treated mice. Circle: area of cell loss upon α-syn overexpression. (D) Quantification of TH^+ cells on the control (Ctrl) side and the stereotactic injection side of solvent treated mice. On the injection side there was a significant loss of TH^+ cells (dark grey bar, right panel) after α-syn overexpression. (E) Images of the TH-immunostained substantia nigra of vinpocetine treated mice of the three injection groups. […] (F) Quantification of the number of TH^+ cells on the control (Ctrl) side and the stereotactic injection side of vinpocetine treated mice. […] Data are mean±s.e.m. Scale bars: 1 mm.
To investigate the neurotoxicity of α-syn in vivo, recombinant adeno-associated viral (rAAV) vectors were stereotactically injected into the substantia nigra of 11 weeks old mice to overexpress human wild type α-syn (rAAV-α-syn; FIG. 5A). The injection of rAAV vectors expressing luciferase (rAAV-luc) or injections with NaCl were used as controls for the toxicity of viral-mediated protein overexpression or the injection procedure itself. The treatment started one week after the intranigral injections. Therefore, the mice of each injection group (NaCl, rAAV-luc, and rAAV-α-syn) were randomized to be treated by daily intraperitoneal injections with 25 mg vinpocetine in solvent or the corresponding volume of solvent alone (FIG. 5B). All animals survived the injection procedure and treatment period. A subgroup of animals were not treated and sacrificed three weeks after injection to determine the transduction rate for rAAV-α-syn and rAAV-luc (each n=3).
To quantify the extent of neurodegeneration induced by rAAV mediated overexpression of α-syn, tyrosine-hydroxylase (TH) stainings of the substantia nigra and the striatum were performed. The number of TH^+ cells was determined by stereological counting. In the group of NaCl injected mice with solvent treatment, there was no significant difference in the number of TH^+ neurons between the injected (4108±54 cells) and the non-injected side (4168±92 cells, P=0.99, FIG. 5C, upper panel and FIG. 5D, blank columns).
To determine the efficacy of vinpocetine in vivo, the number of TH^+ cells in the substantia nigra was determined in mice treated with daily injections of 25 mg/kg vinpocetine in solvent or the corresponding amount of solvent alone.

α-syn = experiment: Western blot quantification of α-syn bands; format: cell-based, human
[4] = tested on: α-syn transduced LUHMES neurons; experiment: High-throughput screening of FDA-approved drugs for neuroprotective efficacy against α-syn (propidium iodide / Hoechst 33342 survival); format: cell-based, human; conditions: 3 μM and 10 μM, each in triplicates (six runs); six days after transduction
[5] = vinpocetine treated mice, daily intraperitoneal 25 mg/kg

## CCCc1nn(C)c2c(=O)[nH]c(-c3cc(S(=O)(=O)N4CCN(C)CC4)ccc3OCC)nc12 [Sildenafil]
[1]; different concentrations
  effect of specific PDE inhibitors on α-syn mediated toxicity (LDH release): did not have an effect

## vinpocetine
[1]; different concentrations
  effect of specific PDE inhibitors on α-syn mediated toxicity (LDH release): significant protection in a dose dependent manner
Microglial marker ibal
  ibal-immunoreactivity, vinpocetine versus solvent treatment: nor any differences between vinpocetine and solvent treatment
Caspase 3 and 7
  relative CellEvent signal (activated caspase 3 and 7): 25.6±2.1
[2]
  cells survived (cell number compared to untransduced controls): 85.1±4.1%
[3]; NaCl and rAAV-luc injection groups
  difference in number of TH+ neurons between solvent and vinpocetine treatment: no difference
[3]; mice, daily intraperitoneal 25 mg/kg vinpocetine, 9-week period, solvent treated 2915±79
  number of TH+ cells in the substantia nigra on the rAAV-α-syn injection side: 3870±141 cells and 3870±14 cells
[3]; rAAV-α-syn injected mice, vinpocetine once daily intraperitoneal, 9 weeks, FIG. 5F
  protection against α-syn-induced cell death of TH+ neurons in vivo: completely prevented α-syn-induced cell death
[3]; [5]
  number of TH+ cells on the injection side, NaCl injected mice: 3984±160 cells
  number of TH+ cells on the injection side, rAAV-luc injected mice: 3860±138 cells
α-syn; 20 μM vinpocetine
  reduction of density of 37 kDa α-syn band compared to α-syn overexpressing cells treated with DMSO: 52.2±6.6%
α-syn; 20 μM vinpocetine, DMSO treated α-syn cells 3.4±0.1-fold
  α-syn monomer band compared to untransduced controls: 5.1±0.4 fold
α-syn; vinpocetine treatment, FIG. 3G,H
  change in other α-syn bands: no change

## NC1=N[C@H](O)[C@H]2[C@H]3O[C@]4(O)O[C@@H]([C@@H](O)[C@@]2(N1)[C@@H]4O)[C@]3(O)CO [tetrodotoxin]
[1]
  effect of cation channel blockers on α-syn mediated toxicity (LDH release): did not affect

## C[C@H](Cc1nc2c(cnn2-c2ccccc2Cl)c(=O)[nH]1)C(F)(F)F [Bay 73-6691]
[1]; different concentrations
  effect of specific PDE inhibitors on α-syn mediated toxicity (LDH release): did not have an effect

## Cc1ccc([N+](=O)[O-])cc1S(=O)(=O)N(C)C [BRL 50481]
[1]; different concentrations
  effect of specific PDE inhibitors on α-syn mediated toxicity (LDH release): did not have an effect

## OCCN(CCO)c1nc(N2CCCCC2)c2nc(N(CCO)CCO)nc(N3CCCCC3)c2n1 [dipyridamole]
[1]; Five μM dipyridamole
  LDH level compared to α-syn overexpressing LUHMES cells with DMSO treatment: 77.0±5.1%
[4]
  protective hit (Z-score above 2.5) in cell survival screening: protective in all six runs

## COc1ccc(Cc2nn3c([C@@H](CCCc4ccccc4)[C@@H](C)O)nc(C)c3c(=O)[nH]2)cc1OC [Bay60-7550]
[1]; different concentrations
  effect of specific PDE inhibitors on α-syn mediated toxicity (LDH release): did not have an effect

## COc1ccc(C2CNC(=O)C2)cc1OC1CCCC1 (stereo not drawn) [Rolipram]
[1]; different concentrations
  effect of specific PDE inhibitors on α-syn mediated toxicity (LDH release): did not have an effect

## Nc1nc(-c2nn(Cc3ccccc3F)c3ncccc23)ncc1C1CC1 [BAY41-2272]
[1]; 1 μM BAY41-2272
  relative LDH release compared to α-syn overexpressing control cells: 56.2±7.8%
α-syn; α-Syn-transduced neurons with forskolin or BAY41-2272, FIG. 4d,e
  change of 37 kDa α-Syn band (Western blot, C20 antibody): reduction of a 37 kDa α-Syn band

## COC(=O)C1=C(C)NC(C)=C(C(=O)OC(C)C)C1c1cccc2nonc12 (stereo not drawn) [isradipine]
[1]; different concentrations, FIG. 4A,B
  effect of cation channel blockers on α-syn mediated toxicity (LDH release): did not affect

## Cc1[nH]c(=O)c(C#N)cc1-c1ccncc1 [Milrinone]
[1]; different concentrations
  effect of specific PDE inhibitors on α-syn mediated toxicity (LDH release): did not have an effect

Source: patent US10918628B2, “Treatment of synucleinopathies” (Deutsches Zentrum für Neurodegenerative Erkrankungen e. V. …, priority 2016, dated 2021)
